Legend:
Format in all cases: ADME
[1] = (§1) The drug is tested on the gut metagenome community of A-04 with ENA study accession number: PRJEB31790 for biotransformation under anaerobic condition. The drug concentrations were measured over 7 timepoints collected between 0 and 12 hours of incubation by liquid-chromatography-coupled mass spectrometry (LC–MS); design: dose 5 uM, timepoint 0, 0.75, 1.5, 3, 6, 9, 12 hours; conditions: 5 µM
[2] = as §1, with “T-04” for “A-04”, “microaerobic” for “anaerobic”; design: dose 5 uM, timepoint 0, 0.75, 1.5, 3, 6, 9, 12 hours; conditions: 5 µM
[3] = The drug is tested on Ruminococcus gnavus strain: ATCC29149 for biotransformation under anaerobic condition. The drug concentrations were measured over 6 timepoints collected between 0 and 12 hours of incubation by liquid-chromatography-coupled mass spectrometry (LC–MS); design: dose 5 uM, timepoint 0, 1.5, 3, 6, 9, 12 hours; conditions: mediterraneibacter gnavus, 5 µM
[4] = The drug is tested on Roseburia intestinalis strain: DSM14610 for biotransformation under anaerobic condition. The drug concentrations were measured over 6 timepoints collected between 0 and 12 hours of incubation by liquid-chromatography-coupled mass spectrometry (LC–MS); design: dose 5 uM, timepoint 0, 1.5, 3, 6, 9, 12 hours; conditions: 5 µM
[5] = as §1, with “P-02” for “A-04”, “microaerobic” for “anaerobic”; design: dose 5 uM, timepoint 0, 0.75, 1.5, 3, 6, 9, 12 hours; conditions: 5 µM
[6] = The drug is tested on Bacteroides vulgatus strain: DSM1447 for biotransformation under anaerobic condition. The drug concentrations were measured over 6 timepoints collected between 0 and 12 hours of incubation by liquid-chromatography-coupled mass spectrometry (LC–MS); design: dose 5 uM, timepoint 0, 1.5, 3, 6, 9, 12 hours; conditions: phocaeicola vulgatus, 5 µM
[7] = The drug is tested on Bifidobacterium longum strain: DSM20088 for biotransformation under microaerobic condition. The drug concentrations were measured over 6 timepoints collected between 0 and 12 hours of incubation by liquid-chromatography-coupled mass spectrometry (LC–MS); design: dose 5 uM, timepoint 0, 1.5, 3, 6, 9, 12 hours; conditions: 5 µM
[8] = as §1, with “A-08” for “A-04”; design: dose 5 uM, timepoint 0, 0.75, 1.5, 3, 6, 9, 12 hours; conditions: 5 µM
[9] = The drug is tested on Odoribacter splanchnicus strain: DSM20712 for biotransformation under anaerobic condition. The drug concentrations were measured over 6 timepoints collected between 0 and 12 hours of incubation by liquid-chromatography-coupled mass spectrometry (LC–MS); design: dose 5 uM, timepoint 0, 1.5, 3, 6, 9, 12 hours; conditions: 5 µM
[10] = as §1, with “P-03” for “A-04”; design: dose 5 uM, timepoint 0, 0.75, 1.5, 3, 6, 9, 12 hours; conditions: 5 µM
[11] = as §1, with “T-01” for “A-04”; design: dose 5 uM, timepoint 0, 0.75, 1.5, 3, 6, 9, 12 hours; conditions: 5 µM
[12] = as §1, with “T-01” for “A-04”, “microaerobic” for “anaerobic”; design: dose 5 uM, timepoint 0, 0.75, 1.5, 3, 6, 9, 12 hours; conditions: 5 µM
[13] = The drug is tested on Collinsella aerofaciens strain: DSM3979 for biotransformation under anaerobic condition. The drug concentrations were measured over 6 timepoints collected between 0 and 12 hours of incubation by liquid-chromatography-coupled mass spectrometry (LC–MS); design: dose 5 uM, timepoint 0, 1.5, 3, 6, 9, 12 hours; conditions: 5 µM
[14] = The drug is tested on Actinomyces naeslundi strain: DSM43013 for biotransformation under anaerobic condition. The drug concentrations were measured over 6 timepoints collected between 0 and 12 hours of incubation by liquid-chromatography-coupled mass spectrometry (LC–MS); design: dose 5 uM, timepoint 0, 1.5, 3, 6, 9, 12 hours; conditions: actinomyces naeslundii, 5 µM
[15] = The drug is tested on Alloscardovia omnicolens strain: DSM21503 for biotransformation under microaerobic condition. The drug concentrations were measured over 6 timepoints collected between 0 and 12 hours of incubation by liquid-chromatography-coupled mass spectrometry (LC–MS); design: dose 5 uM, timepoint 0, 1.5, 3, 6, 9, 12 hours; conditions: 5 µM
[16] = The drug is tested on Streptococcus mitis strain: DSM12643 for biotransformation under anaerobic condition. The drug concentrations were measured over 6 timepoints collected between 0 and 12 hours of incubation by liquid-chromatography-coupled mass spectrometry (LC–MS); design: dose 5 uM, timepoint 0, 1.5, 3, 6, 9, 12 hours; conditions: 5 µM
[17] = The drug is tested on Bacteroides thetaiotaomicron strain: DSM2079 for biotransformation under anaerobic condition. The drug concentrations were measured over 6 timepoints collected between 0 and 12 hours of incubation by liquid-chromatography-coupled mass spectrometry (LC–MS); design: dose 5 uM, timepoint 0, 1.5, 3, 6, 9, 12 hours; conditions: 5 µM
[18] = as §1, with “A-03” for “A-04”; design: dose 5 uM, timepoint 0, 0.75, 1.5, 3, 6, 9, 12 hours; conditions: 5 µM
[19] = The drug is tested on Enterococcus faecalis strain: ATCC29212 for biotransformation under microaerobic condition. The drug concentrations were measured over 6 timepoints collected between 0 and 12 hours of incubation by liquid-chromatography-coupled mass spectrometry (LC–MS); design: dose 5 uM, timepoint 0, 1.5, 3, 6, 9, 12 hours; conditions: 5 µM
[20] = The drug is tested on Coprococcus comes strain: ATCC27758 for biotransformation under anaerobic condition. The drug concentrations were measured over 6 timepoints collected between 0 and 12 hours of incubation by liquid-chromatography-coupled mass spectrometry (LC–MS); design: dose 5 uM, timepoint 0, 1.5, 3, 6, 9, 12 hours; conditions: 5 µM
[21] = The drug is tested on Bacteroides stercoris strain: HM 1036 for biotransformation under anaerobic condition. The drug concentrations were measured over 6 timepoints collected between 0 and 12 hours of incubation by liquid-chromatography-coupled mass spectrometry (LC–MS); design: dose 5 uM, timepoint 0, 1.5, 3, 6, 9, 12 hours; conditions: 5 µM
[22] = The drug is tested on Escherichia coli strain: DSM27469 for biotransformation under anaerobic condition. The drug concentrations were measured over 6 timepoints collected between 0 and 12 hours of incubation by liquid-chromatography-coupled mass spectrometry (LC–MS); design: dose 5 uM, timepoint 0, 1.5, 3, 6, 9, 12 hours; conditions: 5 µM
[23] = as §1, with “T-03” for “A-04”, “microaerobic” for “anaerobic”; design: dose 5 uM, timepoint 0, 0.75, 1.5, 3, 6, 9, 12 hours; conditions: 5 µM
[24] = as §1, with “A-02” for “A-04”, “microaerobic” for “anaerobic”; design: dose 5 uM, timepoint 0, 0.75, 1.5, 3, 6, 9, 12 hours; conditions: 5 µM
[25] = as §1, with “A-07” for “A-04”, “microaerobic” for “anaerobic”; design: dose 5 uM, timepoint 0, 0.75, 1.5, 3, 6, 9, 12 hours; conditions: 5 µM
[26] = The drug is tested on Clostridium bolteae strain: DSM15670 for biotransformation under anaerobic condition. The drug concentrations were measured over 6 timepoints collected between 0 and 12 hours of incubation by liquid-chromatography-coupled mass spectrometry (LC–MS); design: dose 5 uM, timepoint 0, 1.5, 3, 6, 9, 12 hours; conditions: enterocloster bolteae, 5 µM
[27] = as §1, with “microaerobic” for “anaerobic”; design: dose 5 uM, timepoint 0, 0.75, 1.5, 3, 6, 9, 12 hours; conditions: 5 µM
[28] = The drug is tested on Bifidobacterium longum strain: DSM20088 for biotransformation under anaerobic condition. The drug concentrations were measured over 6 timepoints collected between 0 and 12 hours of incubation by liquid-chromatography-coupled mass spectrometry (LC–MS); design: dose 5 uM, timepoint 0, 1.5, 3, 6, 9, 12 hours; conditions: 5 µM
[29] = The drug is tested on Bacteroides ovatus strain: ATCC 8483 for biotransformation under anaerobic condition. The drug concentrations were measured over 6 timepoints collected between 0 and 12 hours of incubation by liquid-chromatography-coupled mass spectrometry (LC–MS); design: dose 5 uM, timepoint 0, 1.5, 3, 6, 9, 12 hours; conditions: 5 µM
[30] = The drug is tested on Gemella morbillorum strain: DSM20572 for biotransformation under microaerobic condition. The drug concentrations were measured over 6 timepoints collected between 0 and 12 hours of incubation by liquid-chromatography-coupled mass spectrometry (LC–MS); design: dose 5 uM, timepoint 0, 1.5, 3, 6, 9, 12 hours; conditions: 5 µM

Row | Structure (SMILES) | Bacterial Biotransformation [1] | Bacterial Biotransformation [2] | Bacterial Biotransformation [3] | Bacterial Biotransformation [4] | Bacterial Biotransformation [5] | Bacterial Biotransformation [6] | Bacterial Biotransformation [7] | Bacterial Biotransformation [8] | Bacterial Biotransformation [9] | Bacterial Biotransformation [10] | Bacterial Biotransformation [11] | Bacterial Biotransformation [12] | Bacterial Biotransformation [13] | Bacterial Biotransformation [14] | Bacterial Biotransformation [15] | Bacterial Biotransformation [16] | Bacterial Biotransformation [17] | Bacterial Biotransformation [18] | Bacterial Biotransformation [19] | Bacterial Biotransformation [20] | other results
1 | CCC(C)(C)C(=O)O[C@H]1C[C@@H](C)C=C2C=C[C@H](C)[C@H](CC[C@@H]3C[C@@H](O)CC(=O)O3)[C@H]21 [SIMVASTATIN] | Compound NOT metabolized | Compound NOT metabolized | Compound NOT metabolized | Compound NOT metabolized | Compound NOT metabolized | Compound NOT metabolized | Compound NOT metabolized | Compound NOT metabolized | Compound NOT metabolized | Compound NOT metabolized | Compound NOT metabolized | Compound NOT metabolized | Compound NOT metabolized | Compound NOT metabolized | Compound NOT metabolized | Compound NOT metabolized | Compound metabolized | Compound NOT metabolized | Compound metabolized | Compound metabolized | Bacterial Biotransformation [21]: Compound NOT metabolized; Bacterial Biotransformation [22]: Compound NOT metabolized; Bacterial Biotransformation [23]: Compound NOT metabolized; Bacterial Biotransformation [24]: Compound metabolized; Bacterial Biotransformation [25]: Compound NOT metabolized; Bacterial Biotransformation [26]: Compound NOT metabolized; Bacterial Biotransformation [27]: Compound NOT metabolized; Bacterial Biotransformation [28]: Compound NOT metabolized; Bacterial Biotransformation [29]: Compound NOT metabolized; Bacterial Biotransformation [30]: Compound NOT metabolized
2 | CN(Cc1cnc2nc(N)nc(N)c2n1)c1ccc(C(=O)N[C@@H](CCC(=O)O)C(=O)O)cc1 [METHOTREXATE] | Compound metabolized | Compound NOT metabolized | Compound NOT metabolized | Compound metabolized | Compound NOT metabolized | Compound NOT metabolized | Compound NOT metabolized | Compound metabolized | Compound NOT metabolized | Compound metabolized | Compound NOT metabolized | Compound metabolized | Compound NOT metabolized | Compound NOT metabolized | Compound NOT metabolized | Compound NOT metabolized | Compound NOT metabolized | Compound metabolized | Compound NOT metabolized | Compound metabolized | Bacterial Biotransformation [21]: Compound NOT metabolized; Bacterial Biotransformation [22]: Compound NOT metabolized; Bacterial Biotransformation [23]: Compound NOT metabolized; Bacterial Biotransformation [24]: Compound metabolized; Bacterial Biotransformation [25]: Compound metabolized; Bacterial Biotransformation [26]: Compound NOT metabolized; Bacterial Biotransformation [27]: Compound metabolized; Bacterial Biotransformation [28]: Compound NOT metabolized; Bacterial Biotransformation [29]: Compound NOT metabolized; Bacterial Biotransformation [30]: Compound NOT metabolized
3 | Cn1cnc([N+](=O)[O-])c1Sc1ncnc2nc[nH]c12 [AZATHIOPRINE] | Compound metabolized | Compound NOT metabolized | Compound metabolized | Compound metabolized | Compound NOT metabolized | Compound metabolized | Compound metabolized | Compound metabolized | Compound NOT metabolized | Compound NOT metabolized | Compound metabolized | Compound NOT metabolized | Compound metabolized | Compound NOT metabolized | Compound NOT metabolized | Compound metabolized | Compound metabolized | Compound metabolized | Compound metabolized | Compound metabolized | Bacterial Biotransformation [21]: Compound metabolized; Bacterial Biotransformation [22]: Compound metabolized; Bacterial Biotransformation [23]: Compound metabolized; Bacterial Biotransformation [24]: Compound metabolized; Bacterial Biotransformation [25]: Compound metabolized; Bacterial Biotransformation [26]: Compound NOT metabolized; Bacterial Biotransformation [27]: Compound metabolized; Bacterial Biotransformation [28]: Compound metabolized; Bacterial Biotransformation [29]: Compound metabolized; Bacterial Biotransformation [30]: Compound NOT metabolized

— ChEMBL document CHEMBL5724806, “Unraveling interindividual differences and functional consequences of gut microbial metabolism of immunosuppressants” (2024)
